Laboratory results: ChEMBL document CHEMBL1275577, “Study of the in vitro activities of rifaximin and comparator agents against 536 anaerobic intestinal bacteria from the perspective of potential utility in pathology involving bowel flora” (Antimicrob Agents Chemother, 2009)

Assays:
Assay type in all cases: functional
[1] = system: Parabacteroides distasonis; assay: Antimicrobial activity against Parabacteroides distasonis by Wadsworth agar dilution method
[2] = system: Bacteroides fragilis; assay: Antimicrobial activity against Bacteroides fragilis by Wadsworth agar dilution method
[3] = system: Bacteroides ovatus; assay: Antimicrobial activity against Bacteroides ovatus by Wadsworth agar dilution method
[4] = system: Bacteroides thetaiotaomicron; assay: Antimicrobial activity against Bacteroides thetaiotaomicron by Wadsworth agar dilution method
[5] = system: Bacteroides nordii; assay: Antimicrobial activity against Bacteroides nordii by Wadsworth agar dilution method
[6] = system: Desulfovibrio fairfieldensis; assay: Antimicrobial activity against Desulfovibrio fairfieldensis by Wadsworth agar dilution method
[7] = system: Desulfovibrio vulgaris; assay: Antimicrobial activity against Desulfovibrio vulgaris by Wadsworth agar dilution method; details: Nitratidesulfovibrio vulgaris
[8] = system: Desulfovibrio sp.; assay: Antimicrobial activity against Desulfovibrio sp. by Wadsworth agar dilution method
[9] = system: Fusobacterium nucleatum; assay: Antimicrobial activity against Fusobacterium nucleatum by Wadsworth agar dilution method
[10] = system: Fusobacterium varium; assay: Antimicrobial activity against Fusobacterium varium by Wadsworth agar dilution method
[11] = system: Porphyromonas somerae; assay: Antimicrobial activity against Porphyromonas somerae by Wadsworth agar dilution method
[12] = system: Prevotella corporis; assay: Antimicrobial activity against Prevotella corporis by Wadsworth agar dilution method
[13] = system: Prevotella melaninogenica; assay: Antimicrobial activity against Prevotella melaninogenica by Wadsworth agar dilution method
[14] = system: Clostridium hathewayi; assay: Antimicrobial activity against Clostridium hathewayi by Wadsworth agar dilution method; details: Hungatella hathewayi
[15] = system: Clostridium aminobutyricum; assay: Antimicrobial activity against Clostridium aminobutyricum by Wadsworth agar dilution method
[16] = system: Clostridium bolteae; assay: Antimicrobial activity against Clostridium bolteae by Wadsworth agar dilution method; details: Enterocloster bolteae
[17] = system: Clostridium butyricum; assay: Antimicrobial activity against Clostridium butyricum by Wadsworth agar dilution method
[18] = system: Clostridium cadaveris; assay: Antimicrobial activity against Clostridium cadaveris by Wadsworth agar dilution method
[19] = system: Clostridium disporicum; assay: Antimicrobial activity against Clostridium disporicum by Wadsworth agar dilution method
[20] = system: Clostridium glycolicum; assay: Antimicrobial activity against Clostridium glycolicum by Wadsworth agar dilution method; details: Terrisporobacter glycolicus
[21] = system: Clostridium lactatifermentans; assay: Antimicrobial activity against Clostridium lactatifermentans by Wadsworth agar dilution method; details: Anaerotignum lactatifermentans
[22] = system: Clostridium leptum; assay: Antimicrobial activity against Clostridium leptum by Wadsworth agar dilution method
[23] = system: Clostridium scindens; assay: Antimicrobial activity against Clostridium scindens by Wadsworth agar dilution method
[24] = system: Clostridium septicum; assay: Antimicrobial activity against Clostridium septicum by Wadsworth agar dilution method
[25] = system: Paeniclostridium sordellii; assay: Antimicrobial activity against Clostridium sordellii by Wadsworth agar dilution method; details: Paraclostridium sordellii
[26] = system: Clostridium sp.; assay: Antimicrobial activity against Clostridium sp. by Wadsworth agar dilution method
[27] = system: Clostridium sporogenes; assay: Antimicrobial activity against Clostridium sporogenes by Wadsworth agar dilution method
[28] = system: Schaalia meyeri; assay: Antimicrobial activity against Actinomyces meyeri by Wadsworth agar dilution method
[29] = system: Schaalia odontolytica; assay: Antimicrobial activity against Actinomyces odontolyticus by Wadsworth agar dilution method
[30] = system: Bifidobacterium breve; assay: Antimicrobial activity against Bifidobacterium breve by Wadsworth agar dilution method
[31] = Antimicrobial activity against Bifidobacterium pseudocatenulatum by Wadsworth agar dilution method
[32] = system: Pseudoramibacter alactolyticus; assay: Antimicrobial activity against Eubacterium alactolyticum by Wadsworth agar dilution method
[33] = system: Eubacterium biforme; assay: Antimicrobial activity against Eubacterium biforme by Wadsworth agar dilution method; details: Holdemanella biformis
[34] = system: Eubacterium cylindroides; assay: Antimicrobial activity against Eubacterium cylindroides by Wadsworth agar dilution method; details: Faecalitalea cylindroides
[35] = system: Eubacterium limosum; assay: Antimicrobial activity against Eubacterium limosum by Wadsworth agar dilution method
[36] = system: Holdemania filiformis; assay: Antimicrobial activity against Holdemania filiformis by Wadsworth agar dilution method
[37] = system: Limosilactobacillus fermentum; assay: Antimicrobial activity against Lactobacillus fermentum by Wadsworth agar dilution method
[38] = system: Lacticaseibacillus rhamnosus; assay: Antimicrobial activity against Lactobacillus rhamnosus by Wadsworth agar dilution method
[39] = system: Cutibacterium acnes; assay: Antimicrobial activity against Propionibacterium acnes by Wadsworth agar dilution method
[40] = system: Propionibacterium avidum; assay: Antimicrobial activity against Propionibacterium avidum by Wadsworth agar dilution method; details: Cutibacterium avidum
[41] = system: Propionibacterium propionicum; assay: Antimicrobial activity against Propionibacterium propionicum by Wadsworth agar dilution method; details: Arachnia propionica
[42] = system: Peptostreptococcus anaerobius; assay: Antimicrobial activity against Peptostreptococcus anaerobius by Wadsworth agar dilution method
[43] = system: Parvimonas micra; assay: Antimicrobial activity against Peptostreptococcus micros by Wadsworth agar dilution method
[44] = system: Ruminococcus flavefaciens; assay: Antimicrobial activity against Ruminococcus flavefaciens by Wadsworth agar dilution method
[45] = system: Blautia luti; assay: Antimicrobial activity against Ruminococcus luti by Wadsworth agar dilution method
[46] = system: Ruminococcus obeum; assay: Antimicrobial activity against Ruminococcus obeum by Wadsworth agar dilution method; details: Blautia obeum
[47] = system: Ruminococcus torques; assay: Antimicrobial activity against Ruminococcus torques by Wadsworth agar dilution method; details: Mediterraneibacter torques

CN[C@H](CC(C)C)C(=O)N[C@H]1C(=O)N[C@@H](CC(N)=O)C(=O)N[C@H]2C(=O)N[C@H]3C(=O)N[C@H](C(=O)N[C@H](C(=O)O)c4cc(O)cc(O)c4-c4cc3ccc4O)[C@H](O)c3ccc(c(Cl)c3)Oc3cc2cc(c3O[C@@H]2O[C@H](CO)[C@@H](O)[C@H](O)[C@H]2O[C@H]2C[C@](C)(N)[C@H](O)[C@H](C)O2)Oc2ccc(cc2Cl)[C@H]1O [VANCOMYCIN]
128 mg/L: MIC50 [1] | MIC90 [1] | MIC90 [2] | MIC50 [3] | MIC90 [3] | MIC50 [4] | MIC90 [5] | MIC50 [12] | MIC50 [13]
4 mg/L: MIC50 [11] | MIC90 [15] | MIC90 [16] | MIC90 [17] | MIC90 [18] | MIC90 [19] | MIC90 [20] | MIC90 [21] | MIC90 [22] | MIC90 [23] | MIC90 [24] | MIC90 [25] | MIC90 [26] | MIC90 [27]
256 mg/L: MIC90 [4] | MIC50 [9] | MIC50 [10] | MIC90 [12] | MIC90 [13]
64 mg/L: MIC50 [2] | MIC [5] | MIC50 [5] | MIC90 [28] | MIC90 [29] | MIC90 [30] | MIC90 [31] | MIC90 [32] | MIC90 [33] | MIC90 [34] | MIC90 [35] | MIC90 [36] | MIC90 [37] | MIC90 [38] | MIC90 [39] | MIC90 [40] | MIC90 [41]
1 mg/L: MIC50 [14] | MIC90 [14] | MIC50 [15] | MIC50 [16] | MIC50 [17] | MIC50 [18] | MIC50 [19] | MIC50 [20] | MIC50 [21] | MIC50 [22] | MIC50 [23] | MIC50 [24] | MIC50 [25] | MIC50 [26] | MIC50 [27] | MIC50 [28] | MIC50 [29] | MIC50 [30] | MIC50 [31] | MIC50 [32] | MIC50 [33] | MIC50 [34] | MIC50 [35] | MIC50 [36] | MIC50 [37] | MIC50 [38] | MIC50 [39] | MIC50 [40] | MIC50 [41] | MIC90 [42] | MIC90 [43] | MIC90 [44] | MIC90 [45] | MIC90 [46] | MIC90 [47]
8 mg/L: MIC90 [11]
> 1020 mg/L: MIC50 [6] | MIC90 [6] | MIC50 [7] | MIC90 [7] | MIC50 [8] | MIC90 [8] | MIC90 [10]
0.5 mg/L: MIC50 [42] | MIC50 [43] | MIC50 [44] | MIC50 [45] | MIC50 [46] | MIC50 [47]
512 mg/L: MIC90 [9]
